Reference: US20250034139A1, “AMINE COMPOUNDS HAVING ANTI-INFLAMMATORY, ANTIFUNGAL, ANTIPARASITIC, AND ANTICANCER ACTIVITY” (PHARMA CINQ, LLC, priority 2013, published 2025)
Converted amounts (≈) assume the structure as drawn. Like-named read-outs stand apart in the source and are kept apart here.

What was measured:
[1] = system: Cryptococcus neoformans (serotype A); test: Example L: Cryptococcus neoformans (serotype A) growth inhibition; assay type: cell-based; details: Cryptococcus neoformans; for MIC: read-out: MIC, uM (concentration for maximum - 99% of inhibition)
Experimental: Cryptococcus neoformans (serotype A) were plated in 96 well plates with 144 μl/well of 5×10e5 CFU/ml in YPD growth medium. Diluted compounds were then added to each well with concentration ranged from 0.05 to 10 μM as final concentration in duplicates. The plates were inoculated at 30° C. Two readings of OD at 600 nm were measured after 18 hr and […] treatments.
C12-imidazol had relative weak activity against Cryptococcus serotype A at low concentration. Data plotted was based on 26 hour reading because 18 hour reading was too low.
• 1. Pick a single colony of Cryptococcus from the Sabouraud Dextrose agar plate using the inoculum loop and inoculate into a 125 ml flask containing 25 ml of YPD growth medium • 2. Incubate at 30° C. with shaking at 220 rpm for 24 hours with loosen lid to allow air in and facilitates growth. • 3. Examine an aliquot of the culture under a microscope for yeast cell morphology and lack of bacterial contamination. • 4. Dilute the overnight culture with YPD medium at 1:100 dilution and count the number of cells as 8×10^6 cfu/ml. • 5. Make a final concentration of cells suspension at 5×10^5 cfu/ml in YPD medium after the stock culture had been stored at 4° C. for 3 days. • 6. Plate 144 μl/well of 5×10^5 cfu/ml cell suspension on 96-well plates. Part-II: Cryptococcus Growth Inhibition Testing with Compounds • 1. From 10 mM DMSO stock solutions, make serial dilutions of compounds to 0.0013, 0.0025, 0.0125, 0.025, 0.05, 0.125 and 0.25 mM solution • 2. Add 6 ul each of diluted compound solutions per well in duplicates. The final concentrations were 0, 0.05, 0.1, 0.5, 1.0, 2.0, 5.0 and 10 micromolar. • 3. Incubated all plates at 30° C. overnight with 175 rpm shaking. • 4. Read absorbance at OD600 after 18 and 26 hours for each plate. • 5. Calculated the % inhibition and IC50 of each compound against the untreated cell.

[2] = system: Cryptococcus neoformans strains; test: Example N: MIC and MFC (CLSI) against Cryptococcus neoformans; assay type: cell-based; design: MIC at 50% inhibition: unit not given here; details: for MIC / MFC: Cryptococcus neoformans, three clinical strains; for MIC: read-out: MIC 100%, Range, incubated for 72 hrs
Experimental: (§1) The objective of this study was to determine the antifungal activity of eight experimental compounds against a representative panel of fungal isolates, including Candida albicans, C. glabrata, Cryptococcus neoformans, Trichophyton rubrum, Aspergillus fumigatus, and Rhizopus spp. Antifungal activity was measured by minimum inhibitory concentration (MIC) and minimum fungicidal concentration (MFC).
(§2) Three recent clinical strains of each species, taken from the culture collection at the Center for Medical Mycology, Case Western University, were tested.
(§3) Compounds in powder form were dissolved in DMSO. Serial dilutions of each compound were then prepared in RPMI-1640 in a range of […].
(§4) MIC testing was performed according to the CLSI M27-A3 and M38-A2 standards for the susceptibility testing of yeasts and filamentous fungi, respectively (1, 2). Test isolates were subcultured from frozen slants onto potato dextrose agar plates (Trichophyton rubrum was subcultured onto oatmeal plates for conidia production) and checked for purity. Inocula were then prepared in RPMI-1640 (YNB for Cryptococcus) to a concentration of 0.5-2.5×10^3 colony-forming units (CFU)/ml or 0.4-5×10^4 conidia/ml for yeast and filamentous fungi, respectively.
(§5) MFC determinations were performed according to the modifications previously described by Canton et al. and Ghannoum and Isham. (3, 4) Specifically, the total contents of each clear well from the MIC assay were subcultured onto potato dextrose agar. To avoid antifungal carryover, the aliquots were allowed to soak into the agar and then were streaked for isolation once dry, thus removing the cells from the drug source.

Candida glabrata strains = test: Example N: MIC and MFC (CLSI) against Candida glabrata; assay type: cell-based; details: for MIC50 / MIC / MFC: Nakaseomyces glabratus; for MIC: read-out: MIC 100%; for MFC: range over Candida glabrata strains, in 48 hr
Experimental: as §1, §2, §3, §4, §5

[3] = system: imiquimod-induced dermatitis; details: for Ear thickness, Mean ± SEM: imiquimod-treated mice; for Ear thickness, Mean ± SEM / PASI Score, Mean ± SEM: topical ointment 0.06% active drug (dexamethasone 0.03%, tacrolimus 0.1%); for Body Weight (mean ± SEM), Final / Body Weight (mean ± SEM), Initial / D BW (g): mouse, in vivo; for PASI Score, Mean ± SEM: scale 0-12
Summary of the method: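 Female Balb/C mice (8 weeks, n=5/group) received 5% imiquimod on both ears daily for 5 days, then every other day; topical test ointments applied to both ears from day 7. Petrolatum with 10% ethanol served as vehicle. Ear thickness and PASI (swelling, erythema, scaling, 0–12) recorded twice weekly.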

Rhizopus strains = test: Example N: MIC and MFC (CLSI) against Rhizopus; assay type: cell-based, Rhizopus spp.; details: for MIC50 / MIC: Rhizopus; for MFC: range over Rhizopus strains, in 48 hr
Experimental: as §1, §2, §3, §4, §5

[4] = system: Aspergillus fumigatus strains; test: Example N: MIC and MFC (CLSI) against Aspergillus fumigatus; assay type: cell-based; design: MIC at 50% inhibition: unit not given here; details: for MIC50 / MIC: Aspergillus fumigatus; for MIC: read-out: MIC 100%; for MFC: range over Aspergillus fumigatus strains, in 48 hr
Experimental: as §1, §2, §3, §4, §5

Candida albicans strains = test: Example N: MIC and MFC (CLSI) against Candida albicans; assay type: cell-based; design: MIC at 50% inhibition / MIC at 100% inhibition: unit not given here; details: for MIC / MFC: Candida albicans, three clinical strains; for MIC: read-out: MIC 100%, Range
Experimental: as §1, §2, §3, §4, §5

[5] = read-out: IC50, uM (concentration for 50% of inhibition), OD of 26 hour reading, 30° C., XLfit
[6] = OD of 26 hour reading, 30° C., XLfit

Row | SMILES | MIC [1, 6] | MIC [2] | MFC [2] | MIC50 (Candida glabrata strains; 24 h) | MIC (Candida glabrata strains; 24 h) | MIC50 (Candida glabrata strains; 48 h) | MIC (Candida glabrata strains; 48 h) | MFC (Candida glabrata strains) | MIC50 (Rhizopus strains; 24 h) | MIC (Rhizopus strains; 24 h, read-out: MIC 100%) | MIC50 (Rhizopus strains; 48 h) | MIC (Rhizopus strains; 48 h, read-out: MIC 100%) | MFC (Rhizopus strains) | MIC50 ([4]; 24 h) | MIC ([4]; 24 h) | MIC50 ([4]; 48 h) | MIC ([4]; 48 h) | MIC (Candida albicans strains; 24 hr) | MIC (Candida albicans strains; 48 hr) | MFC (Candida albicans strains; 48 hr) | further results
1 | COc1ccc(OCCCCCCCCNc2ncnc3ccccc23)cc1 [AE, N-[8-(4-Methoxyphenoxy)octyl]quinazolin-4-amine] | 14.7 µM (≈ 5.59 µg/mL) | 0.25 to 4 µg/mL (≈ 0.659 to 10.5 µM) | 1 to 8 µg/mL (≈ 2.64 to 21.1 µM) | 4 µg/mL (≈ 10.5 µM) | 4 µg/mL (≈ 10.5 µM) | 4 to 8 µg/mL (≈ 10.5 to 21.1 µM) | 4 to 8 µg/mL (≈ 10.5 to 21.1 µM) | 16 to 64 µg/mL (≈ 42.2 to 169 µM) | < 0.12 µg/mL | 1 to 2 µg/mL (≈ 2.64 to 5.27 µM) | 1 to 2 µg/mL (≈ 2.64 to 5.27 µM) | 1 to 4 µg/mL (≈ 2.64 to 10.5 µM) | 64 µg/mL (≈ 169 µM) | 0.12 to 0.5 µg/mL (≈ 0.316 to 1.32 µM) | 0.12 to 1 µg/mL (≈ 0.316 to 2.64 µM) | 0.5 to 2 µg/mL (≈ 1.32 to 5.27 µM) | 1 to 4 µg/mL (≈ 2.64 to 10.5 µM) | 0.5 to 4 µg/mL (≈ 1.32 to 10.5 µM) | 4 µg/mL (≈ 10.5 µM) | 8 to 64 µg/mL (≈ 21.1 to 169 µM) | IC50 [1, 5]: 0.54 µM; Ear thickness, Mean ± SEM [3]: 0.846 ± 0.023; Body Weight (mean ± SEM), Final [3]: 21.3 ± 0.4 g; Body Weight (mean ± SEM), Initial [3]: 20.9 ± 0.5 g; D BW (g) [3]: +0.4 g; PASI Score, Mean ± SEM [3]: 11.550 ± 0.281; MIC at 50% inhibition (Rhizopus strains; 24 hrs): < 0.12 µg/mL; MIC at 50% inhibition ([4]; 24 hrs): <0.12-0.5; MIC at 100% inhibition ([4]; 24 hrs): <0.12-1; MFC [4]: > 64 µg/mL
2 | CCCCCCOc1cccc(CNc2ccnc3ccccc23)c1 [Compound AC, N-[3-(Hexyloxy)benzyl]quinolin-4-amine] | 12.6 µM (≈ 4.2 µg/mL) | 0.25 to 4 µg/mL (≈ 0.747 to 12 µM) | 8 µg/mL (≈ 23.9 µM) | 0.5 to 1 µg/mL (≈ 1.49 to 2.99 µM) | 1 to 2 µg/mL (≈ 2.99 to 5.98 µM) | 1 to 2 µg/mL (≈ 2.99 to 5.98 µM) | 2 to 4 µg/mL (≈ 5.98 to 12 µM) | 4 to 8 µg/mL (≈ 12 to 23.9 µM) | 0.12 to 0.25 µg/mL (≈ 0.359 to 0.747 µM) | 0.5 µg/mL (≈ 1.49 µM) | 0.5 µg/mL (≈ 1.49 µM) | 0.5 to 1 µg/mL (≈ 1.49 to 2.99 µM) | 16 to 64 µg/mL (≈ 47.8 to 191 µM) | < 0.12 µg/mL | 0.25 to 0.5 µg/mL (≈ 0.747 to 1.49 µM) | 0.5 to 1 µg/mL (≈ 1.49 to 2.99 µM) | 1 µg/mL (≈ 2.99 µM) | 0.12 to 1 µg/mL (≈ 0.359 to 2.99 µM) | 0.5 to 2 µg/mL (≈ 1.49 to 5.98 µM) | 2 µg/mL (≈ 5.98 µM) | IC50 ([1]; Macrophage, direct inhibition, values of the earlier study (Table 25), read-out: IC50 value (μM) for inhibition of fungal growth, No macrophages): 1.15 µM; cidal activity (MFC within 4 dilutions of the MIC), in words (Candida glabrata strains; 3 strains): cidal against all of the C. glabrata strains tested; Ear thickness, Mean ± SEM [3]: 0.501 ± 0.030; Body Weight (mean ± SEM), Final [3]: 21.3 ± 0.6 g; Body Weight (mean ± SEM), Initial [3]: 21.1 ± 0.7 g; D BW (g) [3]: +0.2 g; PASI Score, Mean ± SEM [3]: 7.150 ± 0.221; MIC at 50% inhibition (Rhizopus strains; 24 hrs): <0.12-0.25; MIC at 100% inhibition (Rhizopus strains; 24 hrs): 0.5 µg/mL (≈ 1.49 µM); MIC (Rhizopus strains; read-out: MIC at 50% inhibition, 48 hr): 0.5 µg/mL (≈ 1.49 µM); MIC (Rhizopus strains; read-out: MIC at 100% inhibition, 48 hr): 0.5 to 1 µg/mL (≈ 1.49 to 2.99 µM); MIC at 100% inhibition ([4]; 48 hrs): 1 µg/mL (≈ 2.99 µM); cidal activity (MFC within 4 dilutions of the MIC), in words (Candida albicans strains; 3 strains): cidal against 2 of the 3 C. albicans strains tested; MIC at 50% inhibition (Candida albicans strains; 24 hrs): <0.12-0.25; MIC at 100% inhibition (Candida albicans strains; 24 hrs): <0.12-1; MIC at 50% inhibition (Candida albicans strains; 48 hrs): <0.12-1
3 | CCCCCCOCCCCCCCCNc1ccnc2c(Cl)cccc12 [Compound AX, 8-Chloro-N-[8-(hexyloxy)octyl]quinolin-4-amine] | 17.3 µM (≈ 6.76 µg/mL) | 0.5 to 4 µg/mL (≈ 1.28 to 10.2 µM) | 4 to 8 µg/mL (≈ 10.2 to 20.5 µM) | 2 µg/mL (≈ 5.12 µM) | 8 µg/mL (≈ 20.5 µM) | 8 µg/mL (≈ 20.5 µM) | 8 µg/mL (≈ 20.5 µM) | 8 to 64 µg/mL (≈ 20.5 to 164 µM) | 0.5 to 1 µg/mL (≈ 1.28 to 2.56 µM) | 1 to 2 µg/mL (≈ 2.56 to 5.12 µM) | 1 µg/mL (≈ 2.56 µM) | 1 to 2 µg/mL (≈ 2.56 to 5.12 µM) | > 64 µg/mL | 0.12 to 0.25 µg/mL (≈ 0.307 to 0.639 µM) | 0.5 to 1 µg/mL (≈ 1.28 to 2.56 µM) | 1 to 4 µg/mL (≈ 2.56 to 10.2 µM) | 4 to 8 µg/mL (≈ 10.2 to 20.5 µM) | 0.5 to 4 µg/mL (≈ 1.28 to 10.2 µM) | 2 to 4 µg/mL (≈ 5.12 to 10.2 µM) | 4 to 32 µg/mL (≈ 10.2 to 81.8 µM) | IC50 [1, 5]: 0.91 µM; MIC at 50% inhibition [2]: 0.12-2; cidal activity (MFC within 4 dilutions of the MIC), in words ([2]; 3 isolates): cidal against all 3 neoformans isolates; MFC [4]: > 64 µg/mL
